In US10738009B2, “Pyridone amides as modulators of sodium channels” (VERTEX PHARMACEUTICALS INCORPORATED, priority 2013, dated 2020):

What was measured:
[1] = Microsomal stability assay, human liver microsomes (HLM); assay type: in vitro ADME; details: human liver microsomes 0.5 mg/mL, 1 uM substrate, 2 mM NADPH, 37° C., vs time zero control
Protocol: (§1) Microsomal Stability Assay. Compounds were incubated at 37° C. and shaken for 30 minutes in a phosphate buffered solution with either rat or human liver microsomes and the cofactor NADPH. A time zero control was similarly prepared, however with NADPH excluded. The final incubation concentrations were 1 uM substrate (0.2% DMSO), 0.5 mg/mL liver microsome, 2 mM NADPH, and 0.1 M phosphate. Reactions were quenched and proteins precipitated with the addition of 2 volume equivalents of ice cold acetonitrile containing an internal standard. Following a centrifugation step, aliquots from the quenched incubations were further diluted with 4 volume equivalents of a 50% aqueous methanol solution and then subjected to LC/MS/MS analysis for quantitation of parent compound. Microsome stability values were calculated as the percent of substrate remaining after 30 minutes referenced against the time zero control.
(§2) Microsomal stability in rat and human liver microsomes were determined for selected compounds of the present invention using the above assay. Table 4 provides the human liver microsomes (“HLM”) and rat liver microsomes (“RLM”) stability data as the percent of compound remaining after 30 minutes referenced against the time zero control.

[2] = Microsomal stability assay, rat liver microsomes (RLM); assay type: in vitro ADME; details: rat liver microsomes 0.5 mg/mL, 1 uM substrate, 2 mM NADPH, 37° C., vs time zero control
Protocol: as §1, §2

Compound	HLM (% remaining @ 30 minutes) [1] [%]	RLM (% remaining @ 30 minutes) [2] [%]
O=C(Nc1cc[nH]c(=O)c1)c1cc(C(F)(F)F)ccc1Oc1ccc(F)cc1 [Compound 2, 2-(4-fluorophenoxy)-N-(2-oxo-1,2-dihydropyridin-4-yl)-5-(trifluoromethyl)benzamide]	100	
O=C(Nc1cc[nH]c(=O)c1)c1ccc(C(F)(F)F)cc1Oc1ccc(F)cc1F [Compound 7, 2-(2,4-difluorophenoxy)-N-(2-oxo-1,2-dihydropyridin-4-yl)-4-(trifluoromethyl)benzamide]	97	99
COCCOc1ccc(Oc2cc(C(F)(F)F)ccc2C(=O)Nc2cc[nH]c(=O)c2)cc1 [Compound 8, 2-(4-(2-methoxyethoxy)phenoxy)-N-(2-oxo-1,2-dihydropyridin-4-yl)-4-(trifluoromethyl)benzamide]	90	86
Cc1cc(F)ccc1Oc1cc(C(F)(F)F)ccc1C(=O)Nc1cc[nH]c(=O)c1 [Compound 10, 2-(4-fluoro-2-methylphenoxy)-N-(2-oxo-1,2-dihydropyridin-4-yl)-4-(trifluoromethyl)benzamide]	93	82
Cc1cc(F)ccc1Oc1cc(Cl)ccc1C(=O)Nc1cc[nH]c(=O)c1 [Compound 20, 4-chloro-2-(4-fluoro-2-methylphenoxy)-N-(2-oxo-1,2-dihydropyridin-4-yl)benzamide]		88
Cc1ccccc1Oc1ccc(C(F)(F)F)cc1C(=O)Nc1cc[nH]c(=O)c1 [Compound 28, N-(2-oxo-1,2-dihydropyridin-4-yl)-2-(o-tolyloxy)-5-(trifluoromethyl)benzamide]	79	70
COc1cc(F)ccc1Oc1ccc(C(F)(F)F)cc1C(=O)Nc1cc[nH]c(=O)c1 [Compound 30, 2-(4-fluoro-2-methoxyphenoxy)-N-(2-oxo-1,2-dihydropyridin-4-yl)-5-(trifluoromethyl)benzamide]	76	78
Cc1cc(F)ccc1Oc1ccc(C(F)(F)F)cc1C(=O)Nc1cc[nH]c(=O)c1 [Compound 31, 2-(4-fluoro-2-methylphenoxy)-N-(2-oxo-1,2-dihydropyridin-4-yl)-5-(trifluoromethyl)benzamide]	92	91
O=C(Nc1cc[nH]c(=O)c1)c1cc(OC(F)(F)F)ccc1Oc1ccc(F)cc1F [Compound 33, 2-(2,4-difluorophenoxy)-N-(2-oxo-1,2-dihydropyridin-4-yl)-5-(trifluoromethoxy)benzamide]	100	110
O=C(Nc1cc[nH]c(=O)c1)c1cc(OC(F)(F)F)ccc1Oc1ccc(F)cc1Cl [Compound 37, 2-(2-chloro-4-fluorophenoxy)-N-(2-oxo-1,2-dihydropyridin-4-yl)-5-(trifluoromethoxy)benzamide]	100	97
CCOc1ccc(Oc2ccc(C(F)(F)F)cc2C(=O)Nc2cc[nH]c(=O)c2)cc1 [Compound 44, 2-(4-ethoxyphenoxy)-N-(2-oxo-1,2-dihydropyridin-4-yl)-5-(trifluoromethyl)benzamide]	93	84
O=C(Nc1cc[nH]c(=O)c1)c1cc(Cl)ccc1Oc1ccc(F)cc1Cl [Compound 66, 5-chloro-2-(2-chloro-4-fluorophenoxy)-N-(2-oxo-1,2-dihydropyridin-4-yl)benzamide]	100	
Cc1cc(F)ccc1Oc1ccc(Cl)cc1C(=O)Nc1cc[nH]c(=O)c1 [Compound 68, 5-chloro-2-(4-fluoro-2-methylphenoxy)-N-(2-oxo-1,2-dihydropyridin-4-yl)benzamide]	98	72
O=C(Nc1cc[nH]c(=O)c1)c1cc(C(F)(F)F)ccc1Oc1ccc(OC(F)(F)F)cc1 [Compound 72, N-(2-oxo-1,2-dihydropyridin-4-yl)-2-(4-(trifluoromethoxy)phenoxy)-5-(trifluoromethyl)benzamide]	100	
O=C(Nc1cc[nH]c(=O)c1)c1cc(C(F)(F)F)ccc1Oc1ccccc1OC(F)(F)F [Compound 75, N-(2-oxo-1,2-dihydropyridin-4-yl)-2-(2-(trifluoromethoxy)phenoxy)-5-(trifluoromethyl)benzamide]	90	95
O=C(Nc1cc[nH]c(=O)c1)c1cc(C(F)(F)F)ccc1Oc1ccccc1OC(F)F [Compound 76, 2-(2-(difluoromethoxy)phenoxy)-N-(2-oxo-1,2-dihydropyridin-4-yl)-5-(trifluoromethyl)benzamide]	97	93
O=C(Nc1cc[nH]c(=O)c1)c1ccc(C(F)(F)F)cc1Oc1ccc(OC(F)(F)F)cc1 [Compound 79, N-(2-oxo-1,2-dihydropyridin-4-yl)-2-(4-(trifluoromethoxy)phenoxy)-4-(trifluoromethyl)benzamide]		100
O=C(Nc1cc[nH]c(=O)c1)c1ccc(C(F)(F)F)cc1Oc1ccc(OC(F)F)cc1 [Compound 82, 2-(4-(difluoromethoxy)phenoxy)-N-(2-oxo-1,2-dihydropyridin-4-yl)-4-(trifluoromethyl)benzamide]		98
O=C(Nc1cc[nH]c(=O)c1)c1ccc(C(F)(F)C(F)(F)F)cc1Oc1ccc(F)cc1 [Compound 88, 2-(4-fluorophenoxy)-N-(2-oxo-1,2-dihydropyridin-4-yl)-4-(perfluoroethyl)benzamide]	100	
O=C(Nc1cc[nH]c(=O)c1)c1cc(F)ccc1Oc1ccc(OC(F)(F)F)cc1 [Compound 101, 5-fluoro-N-(2-oxo-1,2-dihydropyridin-4-yl)-2-(4-(trifluoromethoxy)phenoxy)benzamide]	97	89
O=C(Nc1cc[nH]c(=O)c1)c1cc(F)c(Cl)cc1Oc1ccc(F)cc1Cl [Compound 109, 4-chloro-2-(2-chloro-4-fluorophenoxy)-5-fluoro-N-(2-oxo-1,2-dihydropyridin-4-yl)benzamide]		100
COc1cc(F)ccc1Oc1cc(C(F)(F)C(F)(F)F)ccc1C(=O)Nc1cc[nH]c(=O)c1 [Compound 111, 2-(4-fluoro-2-methoxyphenoxy)-N-(2-oxo-1,2-dihydropyridin-4-yl)-4-(perfluoroethyl)benzamide]	91	90
COc1cc(F)ccc1Oc1cc(Cl)c(Cl)cc1C(=O)Nc1cc[nH]c(=O)c1 [Compound 114, 4,5-dichloro-2-(4-fluoro-2-methoxyphenoxy)-N-(2-oxo-1,2-dihydropyridin-4-yl)benzamide]	91	82
COc1ccc(Oc2cc(Cl)c(Cl)cc2C(=O)Nc2cc[nH]c(=O)c2)cc1F [Compound 115, 4,5-dichloro-2-(3-fluoro-4-methoxyphenoxy)-N-(2-oxo-1,2-dihydropyridin-4-yl)benzamide]		95
O=C(Nc1cc[nH]c(=O)c1)c1ccc(C(F)(F)F)cc1OCC1CCCC1 [Compound 120, 2-(cyclopentylmethoxy)-N-(2-oxo-1,2-dihydropyridin-4-yl)-4-(trifluoromethyl)benzamide]	87	79
O=C(Nc1cc[nH]c(=O)c1)c1ccc(C(F)(F)F)cc1OCCCC(F)(F)F [Compound 123, N-(2-oxo-1,2-dihydropyridin-4-yl)-2-(4,4,4-trifluorobutoxy)-4-(trifluoromethyl)benzamide]		98
CC(C)(C)c1ccc(C(=O)Nc2ccc(=O)[nH]c2)c(Oc2ccc(C(F)(F)F)nc2)c1 [Compound 142, 4-(tert-butyl)-N-(6-oxo-1,6-dihydropyridin-3-yl)-2-((6-(trifluoromethyl)pyridin-3-yl)oxy)benzamide]	38	50
O=C(Nc1cc[nH]c(=O)c1)c1c(Oc2ccc(F)cc2F)cc(C(F)(F)F)cc1C(F)(F)F [Compound 152, 2-(2,4-difluorophenoxy)-N-(2-oxo-1,2-dihydropyridin-4-yl)-4,6-bis(trifluoromethyl)benzamide]		100
